Patent US20160213657A1, “PHARMACEUTICAL COMPOSITION FOR TREATMENT AND/OR PREVENTION OF PULMONARY DISEASE” (UBE INDUSTRIES, LTD., priority 2013, published 2016)
Where two headings read alike, the source gives them in different places.

Columns and labels:
human EP2 receptor = human EP2 receptor (Homo sapiens, UniProt P43116); assay: Measurement of EP2 receptor binding action ([3H]prostaglandin E2 displacement)
Protocol: Measurement of EP2 Receptor Binding Action
The membrane fraction was collected on glass fiber filter paper (GF/B, manufactured by Whatman) using a cell harvester (M30R, manufactured by Brandel), and after washing with a buffer solution (10 mM MES-KOH (pH 6.0), 10 mM MgCl2), radioactivity was measured with a liquid scintillation analyzer (2000CA, manufactured by Packard).
Ki=IC50/(1+([^3H]prostaglandin E2 concentration/Kd))
Furthermore, the dissociation constant (Kd value) was calculated by Scatchard analysis.

[1] = tested on: LPS-induced TNFα production of human peripheral blood mononuclear cells; assay: Test of inhibition of LPS-induced TNFα production using human peripheral blood mononuclear cells; type: cell-based; conditions: read-out: IC50 value (nM) of TNFα production inhibitory action of human PBMC
Protocol: Test of Inhibition of LPS-Induced TNFα Production Using Human Peripheral Blood Mononuclear Cells
Peripheral blood collected in the presence of heparin from healthy subjects was diluted two-fold with PBS containing 2 (V/V) % FBS. Hemocyte separation solution (Ficoll Paque™, manufactured by GE Healthcare Science) was added to SepMate™-50 (manufactured by […] Technologies Inc.) followed by layering the diluted blood thereon. A peripheral blood mononuclear cell (hereinafter abbreviated as PBMC) layer was recovered by centrifuging for 10 minutes under conditions of 20° C. and 1200×g. The resulting PBMCs were further centrifuged and washed twice followed by suspending in RPMI1640 medium containing 1 (V/V) % FBS for use in the following test.
A test of inhibition of LPS-induced TNFα production was performed by partially modifying the method of Mary et al. (Journal of Pharmacology and Experimental Therapeutics, 284, 420 (1998)). 185 μL of PBMC suspension prepared to a final concentration of 5×10^5 cells/mL was added to a 96-well plate, subsequently 10 μL of RPMI1640 medium, containing 1 (V/V) % DMSO in which a test compound was dissolved, was added to each well (DMSO final concentration: 0.05 (V/V) %). RPMI1640 medium containing 1 (V/V) % DMSO was similarly added to a well to which test compounds had not been added. After incubating for 1 hour in a carbon dioxide gas incubator, 5 μL of RPMI1640 medium containing LPS (L2880-500MG, manufactured by Sigma) was added to each well (LPS final concentration: 100 ng/mL). 5 μL of RPMI1640 medium was added to a non-LPS stimulation well. After culturing for about 18 hours in a carbon dioxide gas incubator, the culture supernatant was recovered. The recovered culture supernatant was stored at −20° C. until measurement of TNFα content.
A sandwich ELISA kit (Quantikine DTA00c, manufactured by R&D Systems) was used to measure TNFα content. The TNFα content of each sample was calculated from a standard curve of E. coli-derived human recombinant TNF provided with the kit. TNFα production inhibition rate at each test compound concentration was calculated based on a value of 100% for the amount of TNFα produced by LPS in the case of only adding DMSO. The concentration of test compound that inhibited TNFα production by 50% was calculated as the IC50 value (nM) from the relationship between concentration of the added test compound and TNFα production inhibition rate of the test compound.

[2] = tested on: neutrophil infiltration of the rat lung; assay: Inhibitory effect on neutrophil infiltration of rat lung (LPS intratracheal, BALF); type: in vivo; conditions: SD rats; approx. 0.1 mg/Kg intratracheally 1 hour prior to LPS; BALF 4 hours after LPS
Protocol: Inhibitory Effect on Neutrophil Infiltration of Rat Lung
A test of inhibition of neutrophil infiltration of the rat lung was performed by partially modifying the method of Spond et al. (Pulmonary Pharmacology and Therapeutics, 14, 157 (2001)). 25 μL (approx. 4 μg/Kg) of physiological saline solution containing LPS (L2880-500MG, manufactured by Sigma) (concentration: 0.04 mg/mL) was administered intratracheally under isoflurane inhalation anesthesia into SD rats fasted for about 16 hours (males, 7-8 weeks old, body weights: 240 g to 270 g (average: approx. 250 g), supplied by Charles River Laboratories, Japan). A Microsprayer™ (IA-1C-M, manufactured by PennCentury) was used for intratracheal administration.
Dosing solutions of the test compounds were prepared by dissolving the test compounds in a 0.1 mol/L or 1 mol/L aqueous sodium hydroxide solution followed by adding medium and neutralizing (final test compound concentration: 1 mg/mL). PBS or phosphate buffer solution (20 mM, pH=7.4) was used for the medium. 25 μL (approx. 0.1 mg/Kg) of the test compound solution prepared in this manner was administered intratracheally in the same manner as LPS administration 1 hour prior to administration of LPS. Medium was administered to a control group. Furthermore, 6 animals were used in the test compound dosing groups and control group, respectively. […]
The number of white blood cells present in the BALF suspension was measured using a multiparameter automated hematology analyzer (KX-21, manufactured by Sysmex). […] Next, after staining the cells using the Diff-Quik staining kit (Cat. No. 16920, manufactured by Sysmex), the number of neutrophils present among 300 white blood cells was measured under a light microscope (BH-2, manufactured by Olympus) followed by calculating the ratio of neutrophils to white blood cells (NR=the number of neutrophils among 300 white blood cells/300). […]
The number of neutrophils present in the BALF cell suspension was measured using a multiparameter automated hematology analyzer (XT-2000iV, manufactured by Sysmex). […]

[3] = membrane fraction of HEK293 cells expressing human EP2 receptor, [3H]prostaglandin E2 10 nM, 30° C., 60 minutes, read-out: Ki value (nM) of EP2 receptor binding action

Chain of human EP2 receptor (P43116 whole entry): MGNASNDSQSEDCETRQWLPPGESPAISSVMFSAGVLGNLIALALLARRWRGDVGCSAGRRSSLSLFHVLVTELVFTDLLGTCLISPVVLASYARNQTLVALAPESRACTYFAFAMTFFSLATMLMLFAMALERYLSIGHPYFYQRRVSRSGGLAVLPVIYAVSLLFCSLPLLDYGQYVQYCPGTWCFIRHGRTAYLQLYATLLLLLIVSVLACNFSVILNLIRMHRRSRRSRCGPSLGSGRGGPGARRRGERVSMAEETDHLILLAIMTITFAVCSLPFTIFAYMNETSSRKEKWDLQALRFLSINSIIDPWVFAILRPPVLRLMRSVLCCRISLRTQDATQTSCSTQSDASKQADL

IC50 ([1]; LPS 100 ng/mL, culture about 18 hours, TNFα by ELISA)	SMILES	Ki (human EP2 receptor; [3])	IC50 ([1]; Homo sapiens, PBMC, 18 h)	Inhibition rate of pulmonary neutrophil infiltration [2]	Ki (human EP2 receptor)
> 300 nM	CCCc1cccc(-c2ccc(CN(Cc3cccc(NCC(=O)O)n3)S(=O)(=O)c3ccccn3)cc2)c1 [Comparative Example 1, {6-[(3′-Propylbiphenyl-4-ylmethyl)(pyridin-2-ylsulfonyl)aminomethyl]pyridin-2-ylamino}acetate, reference compound]	1.1 nM			
	CC=Cc1cccc(-c2ccc(CN(Cc3cccc(NCC(=O)O)n3)S(=O)(=O)c3ccccn3)cc2)c1 [Example 2]	0.53 nM			
	CC#Cc1cccc(-c2ccc(CN(Cc3cccc(NCC(=O)O)n3)S(=O)(=O)c3ccccn3)cc2)c1 [Example 4, (6-{[3′-(1-Propynyl)biphenyl-4-ylmethyl](pyridin-2-ylsulfonyl)aminomethyl}-pyridin-2-ylamino)acetic acid]	0.8 nM	3.3 nM	71%	
	CC#Cc1cccc(-c2ccc(CN(Cc3cccc(NCC(=O)O)n3)S(=O)(=O)c3cccnc3)cc2)c1 [Example 6, (6-{[3′-(1-Propynyl)biphenyl-4-ylmethyl](pyridin-3-ylsulfonyl)aminomethyl}-pyridin-2-ylamino)acetic acid]		9.4 nM		0.75 nM
	CCOc1cccc(-c2ccc(CN(Cc3cccc(NCC(=O)O)n3)S(=O)(=O)c3ccccn3)cc2)c1 [Example 7, {6-[(3′-Ethoxybiphenyl-4-ylmethyl)(pyridin-2-ylsulfonyl)aminomethyl]-pyridin-2-ylamino}acetic acid]		20 nM		0.61 nM
	CCOc1cccc(-c2ccc(CN(Cc3cccc(NCC(=O)O)n3)S(=O)(=O)c3cccnc3)cc2)c1 [Example 9, {6-[(3′-Ethoxybiphenyl-4-ylmethyl)(pyridin-3-ylsulfonyl)aminomethyl]-pyridin-2-ylamino}acetic acid]				0.8 nM
	CCOc1cccc(-c2ccc(CN(Cc3cccc(NCC(=O)O)n3)S(=O)(=O)c3ccccc3)cc2)c1 [Example 10, {6-[(Benzenesulfonyl)(3′-ethoxybiphenyl-4-ylmethyl)aminomethyl]pyridin-2-ylamino}acetic acid]		18 nM		0.97 nM
	CCOc1cccc(-c2ccc(CN(Cc3cccc(NCC(=O)O)n3)S(=O)(=O)c3cccs3)cc2)c1 [Example 11, {6-[(3′-Ethoxybiphenyl-4-ylmethyl)(thiophen-2-ylsulfonyl)aminomethyl]-pyridin-2-ylamino}acetic acid]		23 nM		
	CCOc1cccc(-c2ccc(CN(Cc3cccc(NCC(=O)O)n3)S(=O)(=O)c3ccccn3)cc2)n1 [Example 12, (6-{[4-(6-Ethoxypyridin-2-yl)benzyl](pyridin-2-ylsulfonyl)aminomethyl}-pyridin-2-ylamino)acetic acid]		16 nM		
	CC#Cc1cccc(-c2ccc(CN(Cc3cccc(NCC(=O)O)n3)S(=O)(=O)c3cccs3)cc2)c1 [Example 14, (6-{[3′-(1-Propynyl)biphenyl-4-ylmethyl](thiophen-2-ylsulfonyl)-aminomethyl}pyridin-2-ylamino)acetic acid]	0.9 nM	13 nM	65%	
	CC#Cc1cccc(-c2ccc(CN(Cc3cccc(NCC(=O)O)n3)S(=O)(=O)c3ccccc3)cc2)c1 [Example 16, (6-{(Benzenesulfonyl)[3′-(1-propynyl)biphenyl-4-ylmethyl]aminomethyl}-pyridin-2-ylamino)acetic acid]		15 nM	66%	0.95 nM
	CC#Cc1cccc(-c2ccc(CN(Cc3cccc(NCC(=O)O)n3)S(=O)(=O)c3ccsc3)cc2)c1 [Example 18, (6-{[3′-(1-Propynyl)biphenyl-4-ylmethyl](thiophen-3-ylsulfonyl)-aminomethyl}pyridin-2-ylamino)acetic acid]	0.99 nM	3.2 nM		
